Data published in patent US7888332B2, “Hydrazide-containing CFTR inhibitor compounds and uses thereof” (The Regents of the University of California, priority 2004, dated 2011).
Read-outs that look alike come from different tables or passages of the source.

How the values were obtained:
CFTR [1] = target: T1, CFTR (Homo sapiens, UniProt P13569); assay: Short-circuit current (apical Cl− current) analysis on permeabilized CFTR-expressing FRT cells; settings: for inhibition at 50 µM: FRT, read-out: % inhibition at 50 μM; for change of inhibitory potency relative to parent compound: vs GlyH-101 / GlyH-102
Target sequence in this assay (P13569 whole entry): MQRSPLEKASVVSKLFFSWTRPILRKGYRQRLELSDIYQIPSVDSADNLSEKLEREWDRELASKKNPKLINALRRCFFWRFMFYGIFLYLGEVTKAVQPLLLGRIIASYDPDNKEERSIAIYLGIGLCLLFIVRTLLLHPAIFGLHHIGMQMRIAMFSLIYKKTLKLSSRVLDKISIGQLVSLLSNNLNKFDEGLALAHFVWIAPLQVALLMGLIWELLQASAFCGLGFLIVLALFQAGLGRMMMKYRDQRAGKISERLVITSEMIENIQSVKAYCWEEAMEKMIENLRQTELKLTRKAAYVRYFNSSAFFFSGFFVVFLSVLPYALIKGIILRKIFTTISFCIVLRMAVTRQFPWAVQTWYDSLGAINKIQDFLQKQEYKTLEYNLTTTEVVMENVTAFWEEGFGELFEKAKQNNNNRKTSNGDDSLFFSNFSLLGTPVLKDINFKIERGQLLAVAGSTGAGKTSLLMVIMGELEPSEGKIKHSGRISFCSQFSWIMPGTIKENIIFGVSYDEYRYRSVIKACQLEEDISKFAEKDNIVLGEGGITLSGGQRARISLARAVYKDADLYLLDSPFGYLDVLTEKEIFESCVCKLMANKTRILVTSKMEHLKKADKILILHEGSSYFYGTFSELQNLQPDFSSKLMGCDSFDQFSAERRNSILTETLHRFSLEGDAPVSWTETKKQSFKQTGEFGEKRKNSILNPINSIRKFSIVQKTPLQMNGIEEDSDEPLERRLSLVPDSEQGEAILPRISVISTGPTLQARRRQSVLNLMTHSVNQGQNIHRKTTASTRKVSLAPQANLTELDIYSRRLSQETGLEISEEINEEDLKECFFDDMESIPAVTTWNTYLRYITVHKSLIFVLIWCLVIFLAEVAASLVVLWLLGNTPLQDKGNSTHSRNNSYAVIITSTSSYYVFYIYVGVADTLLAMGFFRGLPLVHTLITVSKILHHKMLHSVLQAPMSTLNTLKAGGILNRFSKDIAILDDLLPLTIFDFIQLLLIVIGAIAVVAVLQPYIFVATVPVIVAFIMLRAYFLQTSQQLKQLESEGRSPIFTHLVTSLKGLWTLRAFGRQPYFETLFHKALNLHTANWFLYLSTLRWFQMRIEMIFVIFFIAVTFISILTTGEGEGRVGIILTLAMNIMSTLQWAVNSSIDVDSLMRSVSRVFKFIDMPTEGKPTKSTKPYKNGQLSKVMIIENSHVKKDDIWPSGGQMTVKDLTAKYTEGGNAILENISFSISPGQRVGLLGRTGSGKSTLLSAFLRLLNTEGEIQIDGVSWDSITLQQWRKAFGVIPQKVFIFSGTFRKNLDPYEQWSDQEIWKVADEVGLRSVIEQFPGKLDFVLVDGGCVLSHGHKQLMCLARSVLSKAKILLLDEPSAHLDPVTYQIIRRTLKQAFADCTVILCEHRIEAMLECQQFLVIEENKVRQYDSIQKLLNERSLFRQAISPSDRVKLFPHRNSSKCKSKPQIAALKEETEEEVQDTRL

CFTR [2] = target: T1, CFTR; design: host or cells: 'permeabilized cell preparations' and 'most intact epithelial cells' (not specified); settings: cited from earlier work
Target sequence in this assay (P13569 whole entry, species assumed): as the sequence (P13569 whole entry) above

[3] = Intestinal absorption in closed mid-jejunal loops; type: in vivo; settings: mice, 2 hours
Description: Absorption studies were performed using mid-jejunal loops created as described above. […] After 2 hours loop fluid was withdrawn and optical absorbance of test compound and FITC were measured (OD342/OD494nm). Percentage intestinal absorption was computed assuming zero absorption of FITC-dextran.
Intestinal absorption was measured in mice in vivo from the disappearance of MalH compounds from the lumens of closed mid-jejunal loops over 2 hours. In these experiments mannitol was included in the MalH-containing solutions to prevent fluid absorption. Absorption rates were referenced against a large FITC-dextran, which was assumed to undergo no absorption over the 2 hour study.

CFTR [4] = target: T1, CFTR; assay: Whole-cell patch-clamp on FRT cells expressing CFTR; type: cell-based; design: expressed in transfected cells; host or cells: Fisher Rat Thyroid (FRT) cells, stably transfected; settings: GlyH-101 at submaximal concentrations; CFTRinh-172 5 μM
Description: Patch-clamp experiments were carried out at room temperature on FRT cells stably expressing wildtype CFTR. Cell-attached and whole-cell configurations were used (Hamill et al., Pflugers Arch. 391:85-100, 1981). The cell membrane was clamped at specified voltages using an EPC-7 patch-clamp amplifier (List Medical). Data were filtered at 500 Hz and digitized at 2000 Hz. For whole-cell experiments the pipette solution contained (in mM): 120 CsCl, 10 TEA-Cl, 0.5 EGTA, 1 MgCl2, 40 mannitol, 10 Cs-HEPES and 3 mM MgATP (pH 7.3). For cell attached experiments EGTA was replaced with 1 mM CaCl2. The bath solution for whole-cell experiments contained (in mM): 150 NaCl, 1 CaCl2, 1 MgCl2, 10 glucose, 10 mannitol, 10 Na-TES (pH 7.4). In cell-attached experiments the bath solution contained (in mM): 130 KCl, 2 NaCl, 2 CaCl2, 2 MgCl2, 10 glucose, 20 mannitol, and 10 K-Hepes (pH 7.3). Inhibitors were applied by extracellular perfusion. CFTR channel activity in cell-attached patches was analyzed as described previously (Taddei et al., FEBS Lett. 558:52-56, 2004).
The mechanism of CFTR block by GlyH-101 was studied using the whole-cell configuration of the patch-clamp technique. After maximal activation of CFTR in stably transfected FRT cells by 5 μM forskolin, current-voltage relationships were measured at GlyH-101 concentrations from 0 to 50 μM. […] Extracellular perfusion with 10 μM GlyH-101 produced an immediate reduction in current that was strongly dependent on membrane potential (FIG. 4A, right panel). At more positive membrane potentials outward positive currents (Cl^− movement into the cell) were reduced compared to inward currents. […] Data for the thiazolidinone 3-[(3-trifluoromethyl)phenyl]-5-[(4-carboxyphenyl)methylene]-2-thioxo-4-thiazolidinone (referred to herein as CFTRinh-172) (5 μM) is shown for comparison. […] FIG. 4C summarizes percentage CFTR current block as a function of GlyH-101 concentration at different membrane voltages.
Target sequence in this assay (P13569 whole entry): as above

[5] = tested on: upper airway CFTR Cl− conductance; assay: Nasal potential difference measurements in mice; settings: compound in all solutions (100 μM)
[6] = Spectrophotometric pH titration (pKa); type: physicochemical; settings: read-out: pKa, secondary amine
Description: FIG. 5A is a graph illustrating the pH-dependent absorbance changes (right panel) of the chemical compounds (10 μM) (corresponding chemical structures, left panel) in NaCl (100 mM) containing MES, HEPES, boric acid, and citric acid (each 10 mM) titrated to different pH using HCl/NaOH. Absorbance changes measured at analytical wavelengths of 346, 348, 346, and 236 nm (top to bottom).

[7] = Ki, Table 1, Group I, concentration giving 50% inhibition of CFTR Cl− conductance
[8] = Ki, Table 2, Group II, concentration giving 50% inhibition of CFTR Cl− conductance
[9] = Table 1, Group I, concentration giving 50% inhibition of CFTR Cl− conductance
[10] = Ki, Table 4, Group IV, concentration giving 50% inhibition of CFTR Cl− conductance
[11] = Ki, Table 3, Group III, concentration giving 50% inhibition of CFTR Cl− conductance

SMILES | inhibition at 50 µM (CFTR [1]) [%] | Ki (CFTR [1]; [7]) [µM] | other results
O=C(CNc1ccc2ccccc2c1)NNC(=O)c1cc(Br)c(O)c(Br)c1 [GlyH-202, 3,5-dibromo-4-hydroxy-[2-(2-napthalenamine)aceto]benzoic acid hydrazide] | 57 | – | Ki (CFTR [1]; [8]): 22 µM
CC(Nc1ccc2ccccc2c1)C(=O)NN=Cc1cc(Br)c(O)c(Br)c1O (stereo not shown) [GlyH-106] | – | – | % inhibition at 50 μM (CFTR [1]; Table 1, Group I): 91%; Ki (CFTR [1]; [9]): 6 µM
O=C(O)c1ccc(C=C2SC(=S)N(c3cccc(C(F)(F)F)c3)C2=O)cc1 [CFTRinh-172, 3-[(3-trifluoromethyl)phenyl]-5-[(4-carboxyphenyl)methylene]-2-thioxo-4-thiazolidinone] | – | – | Ki (CFTR [2]; most intact epithelial cells): 2 to 5 µM; Ki (CFTR [2]; permeabilized cell preparations): 0.2 to 0.3 µM; absorption from closed mid-jejunal loops [3]: > 90%; current-voltage relationship (CFTR [4]): linear
O=S(=O)(O)c1cc(N=C=S)ccc1C=Cc1ccc(N=C=S)cc1S(=O)(=O)O [DIDS, reference compound] | – | – | inhibition of (CFTR-independent) hyperpolarization produced by low Cl− [5]: partial inhibition
CC(=NNC(=O)CNc1ccc2ccccc2c1)c1cc(Br)c(O)c(Br)c1 [GlyH-109] | 100 | 2.5 | –
O=C(NNCc1cc(Br)c(O)c(Br)c1)C(=O)Nc1ccc2ccccc2c1 [OxaH-304] | 78 | – | Ki (CFTR [1]; [11]): 12 µM
CC(Nc1ccc2ccccc2c1)C(=O)NN=Cc1cc(Br)c(O)c(Br)c1 (stereo not shown) [GlyH-107] | 80 | 10 | –
O=C(NNC(=O)c1cc(Br)c(O)c(Br)c1)C(=O)Nc1ccc2ccccc2c1 [OxaH-204] | – | – | Ki (CFTR [1]; [8]): > 50 µM
O=C(COc1ccc2ccccc2c1)NN=Cc1cc(Br)c(O)c(Br)c1 [AceH-402] | 86 | – | Ki (CFTR [1]; [10]): 17 µM
CCOC(=O)CNc1ccc2ccccc2c1 [ethyl N-(2-napthalenyl) glycinate, ethyl N-(2-naphthalenyl)glycinate] | – | – | pKa [6]: ~4.7
CC(=NNC(=O)C(=O)Nc1ccc2ccccc2c1)c1cc(Br)c(O)c(Br)c1 [OxaH-113] | 90 | 3 | –
CC(=NNC(=O)CNc1ccc2ccccc2c1)c1cc(Br)c(O)c(Br)c1O [GlyH-108] | – | – | % inhibition at 50 μM (CFTR [1]; Table 1, Group I): 81%; Ki (CFTR [1]; [9]): 10 µM
O=C(NNC(=O)c1cc(Br)c(O)c(Br)c1O)C(=O)Nc1ccc2ccccc2c1 [OxaH-203] | – | – | Ki (CFTR [1]; [8]): > 50 µM
O=C(CNc1ccc2ccccc2c1)N/N=C/c1cc(Br)c(O)c(Br)c1 [GlyH-102] | – | – | % inhibition at 50 μM (CFTR [1]; Table 1, Group I): 98%; Ki (CFTR [1]; [9]): 5 µM

Continued, in another order:

inhibition at 50 µM (CFTR [1]) [%] | Ki (CFTR [1]; [7]) [µM] | SMILES | other results
86 | 2 | O=C(NN=Cc1cc(Br)c(O)c(Br)c1O)C(=O)Nc1ccc2ccccc2c1 [OxaH-110, N-2-napthalenyl-[(3,5-dibromo-2,4-dihydroxyphenyl)methylene]oxamic acid hydrazide] | Ki (CFTR [1]; apparent Ki, CFTR stimulated by 100 μM CPT-cAMP): ~2 µM; change of inhibitory potency relative to parent compound (CFTR [1]): two-three fold greater
91 | 5 | O=C(CNc1ccc(Cl)cc1)NN=Cc1cc(Br)c(O)c(Br)c1O [GlyH-115] | –
95 | 5 | O=C(CNc1ccc(Cl)cc1)NN=Cc1cc(Br)c(O)c(Br)c1 [GlyH-114] | –
84 | – | O=C(COc1ccc2ccccc2c1)NN=Cc1cc(Br)c(O)c(Br)c1O [AceH-401] | Ki (CFTR [1]; [10]): 21 µM
95 | 3 | CC(=NNC(=O)C(=O)Nc1ccc2ccccc2c1)c1cc(Br)c(O)c(Br)c1O [OxaH-112] | –
63 | – | Cc1ccc(CC(=O)NN=Cc2cc(Br)c(O)c(Br)c2)cc1 [AceH-404] | Ki (CFTR [1]; [10]): 15 µM
54 | – | Cc1ccc(CC(=O)NN=Cc2cc(Br)c(O)c(Br)c2O)cc1 [AceH-403] | Ki (CFTR [1]; [10]): 10 µM
56 | 20 | COc1c(Br)cc(C=NNC(=O)CNc2ccc3ccccc3c2)c(O)c1Br [GlyH-103] | –
87 | 15 | O=C(CNc1cccc2ccccc12)NN=Cc1cc(Br)c(O)c(Br)c1 [GlyH-105] | –
55 | – | O=C(CNc1ccc2ccccc2c1)NNCc1cc(Br)c(O)c(Br)c1 [GlyH-302] | Ki (CFTR [1]; [11]): ~50 µM
86 | 12 | O=C(CNc1cccc2ccccc12)NN=Cc1cc(Br)c(O)c(Br)c1O [GlyH-104] | change of inhibitory potency relative to parent compound (CFTR [1]): ten-fold
79 | 10 | Cc1ccc(NCC(=O)NN=Cc2cc(Br)c(O)c(Br)c2O)cc1 [GlyH-116] | –
52 | 2.5 | O=C(NN=Cc1cc(Br)c(O)c(Br)c1)C(=O)Nc1ccc2ccccc2c1 [OxaH-111] | change of inhibitory potency relative to parent compound (CFTR [1]): two-three fold greater
70 | – | O=C(NNCc1cc(Br)c(O)c(Br)c1O)C(=O)Nc1ccc2ccccc2c1 [OxaH-303] | Ki (CFTR [1]; [11]): 10 µM
